Like-named read-outs stand apart in the source and are kept apart here.
Legend:
[1] = tested on: Trichoderma reesei cellulase composition; assay type: biochemical; conditions: AVICEL, 1 mM organic compound
Description: Microcrystalline cellulose was used as the source of cellulosic material.
The concentration of each organic compound was 1 mM.

[2] = target: T. aurantiacus GH61A polypeptide (Thermoascus aurantiacus, UniProt G3XAP7, N13Y); assay: PACE analysis of products from PASC incubated with organic compound, Ca(II) and T. aurantiacus GH61A polypeptide at various pH; assay type: biochemical
Description: Polysaccharide-analysis-using-carbohydrate-gel-electrophoresis (PACE) was applied to analyze the products from incubation of cellulose in the presence of Ca(II) and ascorbate, cysteine or gallic acid and the T. aurantiacus GH61A polypeptide.
The mixture was filtered, and the filtrate (90 μl) was subjected to PACE analysis as described below. Buffers were varied to obtain the following pH values: formic acid at pH 4, acetic acid at pH 5, triethylammonium acetate at pH 6-7, and ammonium acetate at pH 8-9.
Carbohydrate products from the reaction were derivatized with 8-aminonaphthalene-1,3,6-trisulfonic acid (ANTS) fluorophore, applied to a polyacrylamide gel, and subjected to PACE, according to protocols adapted from (Goubet et al, 2002, Analytical Biochemistry 300: 53-68). Briefly, the derivatization was conducted by first drying 45 μl of the reaction products in a Jouan RC1010 vacuum concentrator system (Jouan Inc., Vallensbaekvej, Denmark) at 40° C. for about 3 hours, then mixing the dried products with 5 μl of 0.2 M ANTS in 15% acetic acid and 5 μl of 1 M NaBH3CN in DMSO, incubation at 37° C. in a thermomixer overnight followed by exposure to air for about 30 minutes, and then drying in a vacuum concentrator at 40° C. for about 4 hours. The ANTS-labeled samples were mixed with 20 μl of 6 M urea prior to PACE analysis.
Gels were cast according to Goubet et al., 2002, supra. The electrophoresis was performed with an SE 660 vertical electrophoresis system (GE Healthcare, Park Alle, Denmark) in a Tris/Borate buffer system at 200 V for 30 minutes and then at 1000 V for almost 2 hours at +5° C., followed by visualization using a UVP BioImaging System (UVP, LLC, Upland, Calif., USA) with UV transilluminator (Wavelength 365 nm UV-A) and EpiChem Darkroom combined with a camera system using a SYBR Gold™ emission filter (Syngene, Cambridge, United Kingdom).
Densitometry was performed by visual definition of a minimal space containing the band of interest, and integration of total pixel intensity within the space using a series of MatLab® scripts (The Mathworks, Natick, Mass., USA).

[3] = cited from earlier work

Chain of T. aurantiacus GH61A polypeptide (G3XAP7 whole entry N13Y): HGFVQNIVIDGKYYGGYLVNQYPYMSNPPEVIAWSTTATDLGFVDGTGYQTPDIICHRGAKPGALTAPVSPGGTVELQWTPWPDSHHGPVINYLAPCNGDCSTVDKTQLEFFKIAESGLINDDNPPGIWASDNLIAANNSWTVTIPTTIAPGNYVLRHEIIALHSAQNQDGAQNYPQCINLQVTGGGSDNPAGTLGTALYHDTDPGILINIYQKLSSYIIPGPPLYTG

Row | Compound | organic compound effect(no GH61) ([1]; pH 5.0, 50° C., 3 days) | organic compound effect(no GH61) ([1]; pH 5.0, 50° C., 7 days) | other results
1 | N[C@@H](CCC(=O)O)C(=O)O [glutamic acid] | below 1 | above 1 | 
2 | O=C1OC(C(O)CO)C(=O)C1=O (stereo not shown) [dehydroascorbate] | 1.05±0.0058 | 1.14±0.00522 | 
3 | O=C(O)c1cc(O)c(O)c(O)c1 [gallic acid] |  |  | PACE band intensity as a function of pH (densitometry) ([2]; cellodextrin bands of apparent DP 4, 8 and 9): increased in intensity with increasing pH; PACE product bands at low pH ([2]; lowest pH examined, 3.9): near zero; shape of the increase of PACE band intensity with pH ([2]; pH range about 3.9 to 5.6): sharp increase in product intensity was noted between pH values of 4.5 and 5.5; pKa [3]: 4.5
4 | O=C(O)c1ccc(O)cc1 [4-hydroxybenzoic acid] | 0.959±0.0162 | 0.961±0.0250 | 
5 | O=C(O)c1ccc(O)c(O)c1 [3,4-dihydroxybenzoic acid] |  | 0.977±0.0208 | 
6 | O=C(O)C(O)C(O)C(=O)O (stereo not shown) [tartrate] | below 1 | below 1 | 
7 | Oc1cccc(O)c1O [pyrogallol] |  | 0.735±0.00518 | 
8 | O=C(O)c1cc(O)cc(O)c1 [3,5-dihydroxybenzoic acid] |  | greater than 1 | 
9 | N[C@@H](CS)C(=O)O [cysteine] |  |  | products detected on PACE ([2]; PASC, Ca(II), GH61A polypeptide, 50° C., pH at or above the pKa of the compound): products similar to cellodextrins having 1-7 glucosyl units were detected
10 | COC(=O)c1ccc(O)cc1 [methyl-4-hydroxybenzoate] |  |  | organic compound effect(no GH61) ([1]; time not specified (FIG. 1: 3 and 7 days)): slightly inhibited
11 | Oc1ccccc1O [pyrocatechol] |  | 0.766±0.0361 | 
12 | COC(=O)c1cc(O)c(O)c(O)c1 [methyl-3,4,5-trihydroxybenzoate] | 0.989±0.0121 | 0.947±0.00189 | 
13 | COc1cc(C=CC(=O)O)ccc1O [4-hydroxy-3-methoxycinnamic acid] | below 1 | approximately 1 | 

Reference: patent publication US8846351B2, “Compositions for enhancing hydroysis of cellulosic material by cellulolytic enzyme compositions” (Novozymes, Inc., priority 2010, dated 2014)
